Measured values taken from patent US5324857A, “Inhibition of the formation of nitrosamines” (Solvay Interox, priority 1992, dated 1994).

Tests used:
[1] = Nitrosamine formation during oxidation of dodecyldimethylamine with hydrogen peroxide under metal stress conditions, CDTMPA chelant, with free radical scavenger; conditions: for Nitrosamine content, total: MDNA + NDMA; for Nitrosamine content, total / Nitrosamine content, MDNA / Nitrosamine content, NDMA: 2.0 mmoles scavenger, CDTMPA, 60° C. then 75° C., total 4 hours; for Nitrosamine content, MDNA: methyldodecylnitrosamine; for Nitrosamine content, NDMA: nitrosodimethylamine; for reduction in nitrosamine formation: mixture already containing phosphonic acid chelating agent (CDTMPA), in words
Protocol: This Comparison and these Examples were each carried out using the following general method:-Dodecyldimethylamine (0.2012 moles, 42.94 g), and sufficient pure water to 150 g, ie approximately 106.9 g, were charged into a passivated 250 mL reaction flask, at ambient temperature together with 0.16 g of the stock metal solution described below to introduce 0.011 mmoles of transition metal impurities and thereby create stress conditions. […]
(§1) The stock metal solution was obtained by dissolving CuSO4.5H2O, 0.393 g, MnSO4.H2O, 0.1475 g, K2CrO4, 0.0935 g, Fe(NH4)2(SO4)2.6H2O, 3.5106 g, AlK(SO4)2.12H2O, 8.791 g in 500 mL water (deionized) containing 20 mL of 10%w/w sulfuric acid solution. It contained a total of 2350 ppm metals concentration. Thus, the concentration of metals in the reaction mixture was about 2.3 ppm.
(§2) The reaction mixture was then heated to a temperature of 60° C. and stirred. An aqueous hydrogen peroxide solution, 50% w/w solution, stabilized by sodium pyrophosphate at 70 ppm calculated as PO4, 15.03 g, was then delivered into the reaction mixture at a constant slow rate during the subsequent 45 minutes. In the Examples, but not in the Comparison, the hydrogen peroxide solution also contained 2.0 mmoles of a free radical scavenger, as specified below. When all the hydrogen peroxide had been introduced, the reaction temperature was increased to 75° C. and the reaction permitted to continue for a total of 4 hours. The mixture was then cooled and analyzed for yield of amine oxide and for the production of by-product volatile nitrosamines, specifically methyldodecylnitrosamine (MDNA) and nitrosodimethylamine (NDMA).

[2] = Nitrosamine formation during oxidation of dodecyldimethylamine with hydrogen peroxide under metal stress conditions, DTPA chelant, with free radical scavenger; conditions: for Nitrosamine content, total: MDNA + NDMA; for Nitrosamine content, total / Nitrosamine content, MDNA / Nitrosamine content, NDMA: 2.0 mmoles scavenger, DTPA 0.043 mmoles, 60° C. then 75° C., total 4 hours; for Nitrosamine content, MDNA: methyldodecylnitrosamine; for reduction in nitrosamine formation: mixture already containing carboxylate chelating agent (DTPA), in words; for Nitrosamine content, NDMA: nitrosodimethylamine
Protocol: This Comparison and these Examples were each carried out using the following general method:-Dodecyldimethylamine (0.2012 moles, 42.94 g), and sufficient pure water to 150 g, ie approximately 106.9 g, were charged into a passivated 250 mL reaction flask, at ambient temperature together with 0.16 g of the stock metal solution described below to introduce 0.011 mmoles of transition metal impurities and thereby create stress conditions. A chelating agent, DTPA, viz diethylenetriaminepentacarboxylic acid, 0.043 mmoles, was then introduced into the mixture to provide a mole ratio to the metal of about 4:1.
as §1, §2
The free radical scavengers were respectively 2,6-di-tert-butyl-4-methylphenol (BHT) in Ex2, butylated hydroxyanisole, a mixture of 2-tert-butylmethoxy anisole and 3-tert-butylmethoxy anisole (BHA) in Ex3, ethyl gallate (EtG) in Ex4 and propyl gallate (PrG) in Ex5.

Row | Compound | Nitrosamine content, total [1] | Nitrosamine content, MDNA [1] | Nitrosamine content, NDMA [1] | reduction in nitrosamine formation [1] | Nitrosamine content, total [2] | Nitrosamine content, MDNA [2] | reduction in nitrosamine formation [2] | Nitrosamine content, NDMA [2]
1 | O=C(O)CCSCCC(=O)O [TPA, thiodipropionic acid] | 541 ppb | 444 ppb | 97 ppb |  |  |  |  | 
2 | CCOC(=O)c1cc(O)c(O)c(O)c1 [EtG, ethyl gallate] | 87 ppb | 57 ppb | 30 ppb | marked reduction in nitrosamine formation | 407 ppb | 334 ppb | marked reduction in nitrosamine formation | 73 ppb
3 | COc1ccc(O)c(C(C)(C)C)c1 [BHA, butylated hydroxyanisole] | 276 ppb | 151 ppb | 125 ppb |  | 779 ppb | 652 ppb |  | 127 ppb
4 | CCCOC(=O)c1cc(O)c(O)c(O)c1 [PrG, propyl gallate] | 80 ppb | 59 ppb | 21 ppb | marked reduction in nitrosamine formation | 308 ppb | 230 ppb | marked reduction in nitrosamine formation | 78 ppb
5 | Cc1cc(C(C)(C)C)c(O)c(C(C)(C)C)c1 [BHT, 2,6-di-tert-butyl-4-methylphenol] | 335 ppb | 212 ppb | 123 ppb |  | 1794 ppb | 1420 ppb |  | 374 ppb
6 | CCC(C)O (stereo not shown) [BuL, 2-butanol] | 1261 ppb | 582 ppb | 679 ppb |  |  |  |  | 
